Measured values reported in paper PMC10498667 (Chemical Science, 2023).

Biological target: T1, Aβ40 (Homo sapiens, UniProt P05067)
T1 construct: Ab40 ([…]-; purchased Peptide Institute, Inc. (Osaka, Japan)
Experiment: ESI-MS and ESI-MS2 of Aβ40 treated with 6
Details: 6 200 μM, 3 h
From the text: To identify the modifications of Aβ in both the absence and presence of Cu(II) upon treatment of 6, we carried out the studies employing electrospray ionization mass spectrometry (ESI-MS). In the sample containing metal-free Aβ42 and 6, the addition of +16 Da into the +3-charged Aβ42 monomer, assigned to be the oxidized monomeric Aβ42, was detected (Fig. 7a), while such oxidation was not observed under anaerobic conditions (Fig. S20 ^†). To determine the oxidized amino acid residues in Aβ42, the b fragments generated by collision-induced dissociation were analyzed by tandem MS (ESI-MS^2). As illustrated in Fig. 7b and S21a, ^† the Met35 residue was measured to be the oxidation site in the singly oxidized Aβ42. […] Similar to metal-free Aβ42, the oxidation of Aβ40 at the Met35 residue was monitored by incubation with 6 (Fig. S22a, b and S23a ^†). […]
2D 1H−15N SOFAST-HMQC NMR Experiments. […] Experimental data were processed with NMRpipe29 and Sparky 3.115.30 The 1H and 15N assignments of 15N-labeled Ab were determined based on the previous results.21,31 The chemical shift perturbation was calculated following the equation (eq 4).32 Note that DdH and DdN represent the alterations in the chemical shifts of 1H and 15N of 15N-labeled Ab, respectively. […]

T1 sequence (P05067 672-711 limits assumed): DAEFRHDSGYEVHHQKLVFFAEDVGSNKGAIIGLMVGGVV

With `O=c1c(-c2ccc(O)c(O)c2)coc2cc(O)c(O)c(O)c12` [compound 6, 3-(3,4-dihydroxyphenyl)-5,6,7-trihydroxy-4H-chromen-4-one] the “plausible oxidation sites in singly oxidized Aβ” value (Cu(II)–Aβ40, Cu(II) 100 μM) was “His13, His14, and Met35” and the “oxidation site in singly oxidized Aβ” value (metal-free Aβ40 100 μM) was “Met35”.
